# pIC50: −log10 of the molar value.
# System: Human TLR7/8
# Test: Human PBMC cell-based assay, TLR7/8 stimulus (RNA-Ig), cytokine ELISA
# Conditions: primary human PBMC assay, TLR7/8 potency; ligand not given; read-out: Human PBMCs IC50
# Method: Human PBMC Cell-Based Assay. Human peripheral blood mononuclear cells (PBMC) were isolated from freshly-drawn heparinized (10 USP units/ml, Hospira, Lakeforest, Ill.) healthy donor whole blood by density gradient (Histopaque® 1077, Sigma, Inc., St. Louis, Mo.). Briefly, 25 ml blood was diluted with 15 ml PBS (without Ca^2+, Mg^2+) in a 50 ml conical tube, and 12 ml Histopaque was underlaid using a spinal needle. Tubes were centrifuged for 45 minutes at 1200 rpm (350×g), and PBMC were collected from the buffy coat. Cells were then washed twice in PBS, and red blood cells were lysed by suspension in 5 ml ammonium chloride solution (1× Red Blood Cell Lysis Buffer, eBioscience) for 5 minutes at room temperature. After a final wash in PBS, PBMC were resuspended at a final concentration of 2×10^6/ml in RPMI-1640 media with L-glutamine (Invitrogen) and supplemented with 25 mM HEPES (Mediatech, Inc, Manassas Va.), 10% fetal bovine serum (HyClone, Logan, Utah), and Penicillin-Streptomycin-Glutamine (Mediatech) and plated at 100 ul/well (2×10^5 cells/well) in tissue culture treated 96-well plates (Falcon).
# Antagonist compounds solubilized and serial diluted in 100% DMSO were added in triplicate to cells to yield a final concentration of 0.1% DMSO (v/v). Hydroxychloroquine (Acros Organics) solubilized and serial diluted in PBS was added in triplicate to cells. PBMC were incubated with antagonist compounds or HCQ for 30 minutes at 37° C., 5% CO2 before adding various TLR agonist reagents in 100 ul complete media per well as follows (final concentrations indicated): R848 (Resiquimod; GLSynthesis, Worcester, Mass.) at 1 uM for TLR7 and TLR8, LPS (Sigma) at 10 ng/ml for TLR4, and CpG-2216 (InvivoGen) at 5 ug/ml for TLR9. To prepare a TLR7/8 agonist that mimics RNA-containing auto-antibody immune complexes in lupus patients, a 26-mer RNA with a sequence derived from human U1 snRNA stem loop IV [(sequence: […]-[…] (SEQ ID NO: 2) with phosphorothioate backbone] was synthesized (Dharmacon, Inc., Lafayette, Colo.), which has been shown previously to be a potent TLR7 and TLR8 agonist. This RNA molecule was diluted to 2.5 μM in serum-free RPMI, and mouse anti-human single stranded DNA monoclonal antibody (MAB3034, Millipore, Inc., Billerica, Mass.), which also cross-reacts with RNA, was added at a 1:25 dilution or at 1 ug/ml. The resulting “RNA-Ig” stimulus was incubated at room temperature for 15-30 minutes before adding to cells. PBMC were incubated with the various TLR agonists for 20 hours at 37° C., 5% CO2. Cell culture supernatants were collected, and levels of various human cytokines were assessed as indicated by standard ELISA procedure according to the manufacturer's recommended protocol (BD Biosciences, Inc., San Diego, Calif.). In a subsequent assay (Table 6) the ability of ER-899742 to block stimulation of normal PBMC by various TLR7/8 ligands, but not DNA-mediated activation of TLR9, was examined. In this assay cells were plated at 1×10^5 cells/well in 100 ul in 96-well plates.
row,SMILES,pIC50
1,CC1CN(c2ccc(C#N)c3ncccc23)CC(C(=O)NC2CNCCC2F)O1.Cl (mixture of isomers) [ER-899477],8.22
2,Cc1ccnc(NCC2CN(c3ccc(C#N)c4ncccc34)CC(C)O2)c1 (stereo not drawn) [ER-886853],8.40
3,CC1CN(c2ccc(C#N)c3ncccc23)CC(C(=O)NCC(F)(F)F)O1 (stereo not drawn) [ER-898563],6.91
4,CC1CN(c2ccc(C#N)c3ncccc23)CC(C(C)O)O1 (stereo not drawn) [ER-895310],7.47
5,C[C@@H]1CN(c2ccc(C#N)c3ncccc23)C[C@H](C(=O)N2CCC(N)CC2)O1 [ER-899588],8.15
6,C[C@@H]1CN(c2ccc(C#N)c3ncccc23)C[C@H](C(=O)N[C@H]2CN(C)C[C@H]2F)O1 [ER-899332],7.85
7,CC1CN(c2ccc(C#N)c3ncccc23)CC(CN2CC(O)CC2CO)O1 (stereo not drawn) [ER-887262],6.99
8,C[C@@H]1CN(c2ccc(C#N)c3ncccc23)C[C@H](CNc2ccc3cccnc3n2)O1 [ER-888289],7.96
9,CC1CN(c2ccc(C#N)c3ncccc23)CC(CN2CCC(NS(=O)(=O)c3ccc(F)cc3)CC2)O1 (stereo not drawn) [ER-894150],8.40
10,CCC(O)CNC(=O)C1CN(c2ccc(C#N)c3ncccc23)CC(C)O1 (stereo not drawn) [ER-897922],7.19
11,CC1CN(c2ccc(C#N)c3ncccc23)CC(CN2CCCCC2C)O1 (stereo not drawn) [ER-886957],7.77
12,C[C@@H]1CN(c2ccc(C#N)c3ncccc23)C[C@H](CN2CC[C@@H](O)C2)O1 [ER-886867],7.47
13,C[C@@H]1CN(c2ccc(C#N)c3ncccc23)C[C@H](C(=O)NC2CC3CCC(C2)N3)O1 (stereo partly drawn) [ER-899416],6.37
14,CC1CN(c2ccc(C#N)c3ncccc23)CC(C(=O)Nc2ccnn2C)O1 (stereo not drawn) [ER-898919],7.26
15,C[C@@H]1CN(c2ccc(C#N)c3ncccc23)C[C@H](CN)O1 [ER-884884],6.69
16,CC1CN(c2ccc(C#N)c3ncccc23)CC(C(=O)NCC2CCCCN2C)O1 (stereo not drawn) [ER-899293],7.89
17,CC(C)C(=O)N[C@H]1CCN(C[C@H]2CN(c3ccc(C#N)c4ncccc34)C[C@@H](C)O2)C1 [ER-894547],7.92
18,C[C@H]1CN(c2ccc(C#N)c3ncccc23)C[C@@H](CF)O1 [ER-886133],6.90
19,N#Cc1ccc(N2CCOC(CCl)C2)c2cccnc12 (stereo not drawn) [ER-879570],6.95
20,CCC(CO)NC(=O)C1CN(c2ccc(C#N)c3ncccc23)CC(C)O1 (stereo not drawn) [ER-897827],7.41
21,CC(C)C(=O)N[C@@H]1CCN(C[C@H]2CN(c3ccc(C#N)c4ncccc34)C[C@@H](C)O2)C1 [ER-890253],7.19
22,CC1CN(c2ccc(C#N)c3ncccc23)CC(C(=O)NCC2CNC2)O1 (stereo not drawn) [ER-899020],7.46

row,SMILES,pIC50
1,C[C@@H]1CN(c2ccc(C#N)c3ncccc23)C[C@H](CN2CCNC(=O)[C@@H]2C)O1 [ER-894484],6.76
2,C[C@@H]1CN(c2ccc(C#N)c3ncccc23)C[C@H](CN2CCOCC2)O1 [ER-888203],6.98
3,CC1CN(c2ccc(C#N)c3ncccc23)CC(CN2CC(N3CCOCC3)C2)O1 (stereo not drawn) [ER-890342],6.92
4,C[C@@H]1CN(c2ccc(C#N)c3ncccc23)C[C@H](COc2ccc(F)c(F)c2)O1 [ER-886605],7.68
5,CC1CCN(CC2CN(c3ccc(C#N)c4ncccc34)CC(C)O2)C1 (stereo not drawn) [ER-886868],7.30
6,CC(=O)N1CCN(C2CN(CC3CN(c4ccc(C#N)c5ncccc45)CC(C)O3)C2)CC1 (stereo not drawn) [ER-890120],8.30
7,N#Cc1ccc(N2CCOC(CNc3ccccn3)C2)c2cccnc12 (stereo not drawn) [ER-887612],7.28
8,C[C@@H]1CN(c2ccc(C#N)c3ncccc23)C[C@H](CN2CC[C@H](N(C)C)C2)O1 [ER-894549],7.85
9,Cc1cc(CN2CCN(C)CC2)cc(-c2ccc(C#N)c3ncccc23)c1 [ER-888647],7.92
10,C[C@@H]1CN(c2ccc(C#N)c3ncccc23)C[C@H](CN2CC(NS(=O)(=O)c3ccc(F)cc3)C2)O1 [ER-894155],7.38
11,CC1CN(c2ccc(C#N)c3ncccc23)CC(C(=O)NCC2CCCN2)O1 (stereo not drawn) [ER-899414],7.60
12,CC1CN(c2ccc(C#N)c3ncccc23)CC(CN2CCCC(O)C2)O1 (stereo not drawn) [ER-886951],7.10
13,C[C@@H]1CN(c2ccc(C#N)c3ncccc23)C[C@H](CN2CC[C@H](NC(=O)c3ccccc3)C2)O1 [ER-894548],7.55
14,Cc1cc(CN2CCC(O)CC2)cc(-c2ccc(C#N)c3ncccc23)c1 [ER-888645],7.33
15,CC(=O)N1CCC(C2CCN(CC3CN(c4ccc(C#N)c5ncccc45)CC(C)O3)CC2)CC1 (stereo not drawn) [ER-890113],7.66
16,CC1CN(c2ccc(C#N)c3ncccc23)CC(CN2CCC(NC(=O)c3cccnc3)CC2)O1 (stereo not drawn) [ER-889728],7.68
17,CCCCCC(=O)NC1CCN(CC2CN(c3ccc(C#N)c4ncccc34)CC(C)O2)CC1 (stereo not drawn) [ER-889744],8.10
18,Cc1cc(CN2CCC(N(C)C)CC2)cc(-c2ccc(C#N)c3ncccc23)c1 [ER-888646],8.52
19,C[C@@H]1CN(c2ccc(C#N)c3ncccc23)C[C@H](CNc2ccnn2-c2ccccc2)O1 [ER-886860],6.62
20,CC(=O)NC[C@H]1CN(c2ccc(C#N)c3ncccc23)C[C@@H](C)O1 [ER-879689],5.91
21,C[C@H]1CN(c2ccc(C#N)c3ncccc23)C[C@@H](CCl)O1 [ER-886134],6.56

# Target: T1, mouse TLR7 (Mus musculus, UniProt P58681)
# T1 sequence (P58681 27-1050): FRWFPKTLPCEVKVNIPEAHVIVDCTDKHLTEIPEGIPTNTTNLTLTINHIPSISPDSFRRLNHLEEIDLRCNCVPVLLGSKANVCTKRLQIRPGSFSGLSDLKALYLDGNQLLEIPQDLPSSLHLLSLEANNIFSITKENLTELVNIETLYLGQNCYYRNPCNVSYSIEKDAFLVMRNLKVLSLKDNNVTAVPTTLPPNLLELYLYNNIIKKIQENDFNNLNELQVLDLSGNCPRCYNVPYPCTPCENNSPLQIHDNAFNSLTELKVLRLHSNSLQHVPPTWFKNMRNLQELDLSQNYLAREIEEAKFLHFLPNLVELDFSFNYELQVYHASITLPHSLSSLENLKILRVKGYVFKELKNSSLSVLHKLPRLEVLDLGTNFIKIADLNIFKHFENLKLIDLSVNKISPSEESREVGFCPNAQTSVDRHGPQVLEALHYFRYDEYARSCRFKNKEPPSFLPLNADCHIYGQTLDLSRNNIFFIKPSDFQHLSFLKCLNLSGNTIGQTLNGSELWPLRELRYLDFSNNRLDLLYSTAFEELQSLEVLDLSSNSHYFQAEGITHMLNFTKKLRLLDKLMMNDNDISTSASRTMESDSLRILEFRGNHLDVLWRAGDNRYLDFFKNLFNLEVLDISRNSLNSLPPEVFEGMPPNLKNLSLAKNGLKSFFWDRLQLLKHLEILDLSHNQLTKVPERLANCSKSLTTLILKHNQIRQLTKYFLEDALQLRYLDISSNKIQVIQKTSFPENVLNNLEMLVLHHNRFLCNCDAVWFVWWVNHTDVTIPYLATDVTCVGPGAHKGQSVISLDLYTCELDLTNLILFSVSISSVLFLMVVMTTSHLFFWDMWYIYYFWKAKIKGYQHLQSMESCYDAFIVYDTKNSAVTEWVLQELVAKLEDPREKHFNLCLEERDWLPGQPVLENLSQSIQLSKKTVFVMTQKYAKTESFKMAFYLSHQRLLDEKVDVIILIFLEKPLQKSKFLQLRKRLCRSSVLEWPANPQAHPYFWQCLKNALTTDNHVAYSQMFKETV
# Test: Short-term in vivo (STIV) assay: oral dosing, R848 s.c., plasma IL-6
# Parameters: female BALB/c mice (Jackson Labs, Bar Harbor, Me.) were dosed by oral gavage; tissue Jackson Labs; host or cells: living female BALB/c mice; plasma IL-6 after s.c. R848
# Conditions: 6 h; 100 mg/kg
# Method: Figure Legend: Female BALB/c mice were dosed by oral gavage with Vehicle alone (0.5% aqueous methyl-cellulose) or compound formulated in Vehicle at 33 mg/kg, 100 mg/kg or 300 mg/kg. […] (FIG. 1A).
# Short-term in vivo (STIV) assay: To assess compound potency in vivo against mouse TLR7, a short-term in vivo (STIV) assay was utilized. Briefly, mice were orally dosed with compounds and at various time points afterwards were injected subcutaneously with agonist R848 to stimulate TLR7. The plasma IL-6 level following R848 stimulation was then measured by ELISA to assess compound potency and duration-of-action.
# Short-term in vivo (STIV) assay. Six to eight week old female BALB/c mice (Jackson Labs, Bar Harbor, Me.) were dosed by oral gavage in 200 ul volume with antagonist compounds formulated in 0.5% aqueous methyl-cellulose (Sigma, St. Louis, Mo.). At various time points afterwards, mice were injected subcutaneously (s.c.) in 100 ul volume with 15 ug R848 (Resiquimod; GLSynthesis, Worcester, Mass.) to stimulate TLR7.
row,SMILES,% Suppression vs. Vehicle
1,CC1CN(c2ccc(C#N)c3ncccc23)CC(C(=O)NC2CNCCC2F)O1.Cl (mixture of isomers) [ER-899477],96%

# Same assay, conditions: 13 h; 100 mg/kg
row,SMILES,% Suppression vs. Vehicle
1,CC1CN(c2ccc(C#N)c3ncccc23)CC(C(=O)NC2CNCCC2F)O1.Cl (mixture of isomers) [ER-899477],68%
